According to PubChem BioAssay (NCI):
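Compound exposure: 48 hours, 5 concentrations, 96-well plates. Here, GI50 denotes the concentration required for 50% inhibition of growth. Definition used: TGI = concentration required for complete inhibition of growth.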

Assays:
Assay in all cases: NCI anticancer screen, dose series, 48 h; in the data active = GI50 below about 0.43 µM; inactive = the rest
SK-MEL-2 melanoma = system: SK-MEL-2 melanoma
OVCAR-5 ovarian = system: OVCAR-5 ovarian
786-0 renal = system: 786-0 renal
SF-268 CNS = system: SF-268 CNS
SK-MEL-5 melanoma = system: SK-MEL-5 melanoma
MDA-MB-231 breast = system: MDA-MB-231 breast
KM12 colon = system: KM12 colon
MCF7 breast = system: MCF7 breast
CCRF-CEM leukemia = system: CCRF-CEM leukemia
MDA-MB-435 = system: MDA-MB-435
SNB-19 CNS = system: SNB-19 CNS
SW-620 colon = system: SW-620 colon
UO-31 renal = system: UO-31 renal
NCI-H460 lung = system: NCI-H460 lung
HCT-15 colon = system: HCT-15 colon
CAKI-1 renal = system: CAKI-1 renal
MOLT-4 leukemia = system: MOLT-4 leukemia
UACC-62 melanoma = system: UACC-62 melanoma
LOX IMVI melanoma = system: LOX IMVI melanoma
NCI/ADR-RES ovarian = system: NCI/ADR-RES ovarian
NCI-H522 lung = system: NCI-H522 lung
OVCAR-8 ovarian = system: OVCAR-8 ovarian
RPMI-8226 leukemia = system: RPMI-8226 leukemia
T-47D breast = system: T-47D breast
HL-60(TB) leukemia = system: HL-60(TB) leukemia
NCI-H23 lung = system: NCI-H23 lung
ACHN renal = system: ACHN renal
A549 NSCLC = system: A549 NSCLC
SR leukemia = system: SR leukemia
SF-539 CNS = system: SF-539 CNS
HCC-2998 colon = system: HCC-2998 colon
TK-10 renal = system: TK-10 renal
COLO 205 colon = system: COLO 205 colon
SK-OV-3 ovarian = system: SK-OV-3 ovarian
HS 578T breast = system: HS 578T breast
SF-295 CNS = system: SF-295 CNS
HOP-92 NSCLC = system: HOP-92 NSCLC
SNB-75 CNS = system: SNB-75 CNS
OVCAR-4 ovarian = system: OVCAR-4 ovarian
SN12C renal = system: SN12C renal
M14 melanoma = system: M14 melanoma
RXF 393 renal = system: RXF 393 renal
PC-3 prostate = system: PC-3 prostate
BT-549 breast = system: BT-549 breast
IGROV1 ovarian = system: IGROV1 ovarian
HOP-62 NSCLC = system: HOP-62 NSCLC
U251 CNS = system: U251 CNS
NCI-H226 lung = system: NCI-H226 lung
OVCAR-3 ovarian = system: OVCAR-3 ovarian
SK-MEL-28 melanoma = system: SK-MEL-28 melanoma
UACC-257 melanoma = system: UACC-257 melanoma
HCT-116 colon = system: HCT-116 colon
DU-145 prostate = system: DU-145 prostate

CS(=O)(=O)O[C@H]1C(=O)N(c2cc3c4ccccc4ccc3c3ccccc23)[C@@H]1c1ccccn1
11800 nM: TGI (SF-295 CNS)
14900 nM: TGI (OVCAR-3 ovarian)
31700 nM: TGI (786-0 renal)
3350 nM: TGI (SK-MEL-5 melanoma)
5230 nM: TGI (M14 melanoma)
2960 nM: TGI (SF-539 CNS)
9790 nM: TGI (BT-549 breast)
14000 nM: TGI (MDA-MB-231 breast)
active: GI50 (786-0 renal) 348 nM | GI50 (SK-MEL-5 melanoma) 300 nM | GI50 (MCF7 breast) 321 nM | GI50 (MDA-MB-435) 217 nM | GI50 (SW-620 colon) 401 nM | GI50 (HCT-15 colon) 419 nM | GI50 (CAKI-1 renal) 413 nM | GI50 (UACC-62 melanoma) 347 nM | GI50 (HL-60(TB) leukemia) 309 nM | GI50 (SR leukemia) 384 nM | GI50 (SF-539 CNS) 316 nM | GI50 (COLO 205 colon) 398 nM | GI50 (SF-295 CNS) 291 nM | GI50 (HOP-92 NSCLC) 395 nM | GI50 (SNB-75 CNS) 248 nM | GI50 (M14 melanoma) 317 nM | GI50 (RXF 393 renal) 242 nM | GI50 (PC-3 prostate) 399 nM | GI50 (OVCAR-3 ovarian) 411 nM | GI50 (HCT-116 colon) 372 nM | GI50 (DU-145 prostate) 416 nM
inactive: GI50 (SK-MEL-2 melanoma) 687 nM | GI50 (OVCAR-5 ovarian) 711 nM | GI50 (SF-268 CNS) 707 nM | GI50 (MDA-MB-231 breast) 1070 nM | GI50 (KM12 colon) 473 nM | GI50 (CCRF-CEM leukemia) 515 nM | GI50 (SNB-19 CNS) 749 nM | GI50 (UO-31 renal) 760 nM | GI50 (NCI-H460 lung) 2390 nM | GI50 (MOLT-4 leukemia) 2220 nM | GI50 (LOX IMVI melanoma) 588 nM | GI50 (NCI/ADR-RES ovarian) 523 nM | GI50 (NCI-H522 lung) 573 nM | GI50 (OVCAR-8 ovarian) 712 nM | GI50 (RPMI-8226 leukemia) 467 nM | GI50 (T-47D breast) 440 nM | GI50 (NCI-H23 lung) 981 nM | GI50 (ACHN renal) 877 nM | GI50 (A549 NSCLC) 665 nM | GI50 (HCC-2998 colon) 1250 nM | GI50 (TK-10 renal) 996 nM | GI50 (SK-OV-3 ovarian) 627 nM | GI50 (HS 578T breast) 428 nM | GI50 (OVCAR-4 ovarian) 1620 nM | GI50 (SN12C renal) 737 nM | GI50 (BT-549 breast) 501 nM | GI50 (IGROV1 ovarian) 2140 nM | GI50 (HOP-62 NSCLC) 612 nM | GI50 (U251 CNS) 685 nM | GI50 (NCI-H226 lung) 5360 nM | GI50 (SK-MEL-28 melanoma) 783 nM | GI50 (UACC-257 melanoma) 16900 nM
23000 nM: TGI (HCT-116 colon)
878 nM: TGI (RXF 393 renal)
1950 nM: TGI (COLO 205 colon)
> 100000 nM: TGI (SK-MEL-2 melanoma) | TGI (OVCAR-5 ovarian) | TGI (SF-268 CNS) | TGI (KM12 colon) | TGI (MCF7 breast) | TGI (CCRF-CEM leukemia) | TGI (SNB-19 CNS) | TGI (SW-620 colon) | TGI (UO-31 renal) | TGI (NCI-H460 lung) | TGI (HCT-15 colon) | TGI (CAKI-1 renal) | TGI (MOLT-4 leukemia) | TGI (UACC-62 melanoma) | TGI (LOX IMVI melanoma) | TGI (NCI/ADR-RES ovarian) | TGI (NCI-H522 lung) | TGI (OVCAR-8 ovarian) | TGI (RPMI-8226 leukemia) | TGI (T-47D breast) | TGI (HL-60(TB) leukemia) | TGI (NCI-H23 lung) | TGI (ACHN renal) | TGI (A549 NSCLC) | TGI (SR leukemia) | TGI (HCC-2998 colon) | TGI (TK-10 renal) | TGI (SK-OV-3 ovarian) | TGI (HS 578T breast) | TGI (SNB-75 CNS) | TGI (OVCAR-4 ovarian) | TGI (SN12C renal) | TGI (PC-3 prostate) | TGI (IGROV1 ovarian) | TGI (HOP-62 NSCLC) | TGI (U251 CNS) | TGI (NCI-H226 lung) | TGI (SK-MEL-28 melanoma) | TGI (UACC-257 melanoma) | TGI (DU-145 prostate)
597 nM: TGI (MDA-MB-435)
56300 nM: TGI (HOP-92 NSCLC)
